Where “and” joins values, the source holds several entries; their conditions need not be identical. Identical values can stand only once. Like-named read-outs stand apart in the source and are kept apart here. Blank lines part the entries; values can stand above or below the compound they belong to.
Columns and labels:
TPH1 = molecular target: T1, TPH1 (Homo sapiens, UniProt P17752); assay: Differential scanning fluorimetry (DSF) thermal stability assay; assay type: binding; conditions: DSF, 50 μM compound
T1 construct: doubly truncated human TPH1 (ΔNH102-ΔCOOH402); made in house; host or cells: E. coli BL21(DE3)
T1 sequence (P17752 102-402): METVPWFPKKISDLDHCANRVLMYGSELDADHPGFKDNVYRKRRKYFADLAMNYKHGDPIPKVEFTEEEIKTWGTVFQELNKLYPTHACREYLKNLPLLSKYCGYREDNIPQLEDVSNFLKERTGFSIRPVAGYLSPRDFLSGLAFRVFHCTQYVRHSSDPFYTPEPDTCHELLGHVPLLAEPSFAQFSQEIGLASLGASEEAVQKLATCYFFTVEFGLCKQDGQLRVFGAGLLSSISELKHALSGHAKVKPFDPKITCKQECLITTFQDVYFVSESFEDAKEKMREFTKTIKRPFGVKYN
Protocol: A fluorescence-based thermal stability assay (differential scanning fluorimetry, DSF) was used for testing the effects of HDIs on the thermal stability of TPH1.
For initial high throughput screening (HTS), compounds were prepared at a concentration of 10 mM (in some cases, 5 mM) in 100% DMSO. Initial HTS screening was performed on TPH1 with and without compounds using a LightCycler 480 Real-Time PCR System (Roche Applied Science). TPH1 was diluted to 0.075 mg/mL in 50 mM Tris pH 8.0, 200 mM NaCl, 0.5 mM TCEP, and 5% glycerol with 5x SYPRO Orange. Compounds were added to a final concentration of 50 μM. Controls with 0.5% DMSO were performed on each 384-well microplate. Unfolding curves were recorded from 20 to 95 °C at a scan rate of 2 °C/min and monitored at excitation = 465 nm and emission = 610 nm. Selected hits were validated further by serial dilution from 250 μM to 122 nM, keeping the DMSO concentration constant at 2%.
DSF data were analyzed using HTSDSF Explorer.[55] Melting temperature (Tm) was calculated from the maximum value of the first derivative of the unfolding curve. ΔTm (Tm with compound–averaged Tm in DMSO controls) was plotted for all validated curves and a threshold of 2 °C was set (typically, cutoff at ΔTm = 3-fold the SD of the Tm of the DMSO control).
Preliminary binding constants (KD) were calculated by fitting data to the equation [drawing 1] where ΔH0 is the enthalpy of the unfolding of the protein in the presence of ligand ([L]), and R is the gas constant.

[1] = molecular target: T2, doubly truncated human TPH1 (ΔNH102-ΔCOOH402) (Homo sapiens, UniProt P17752); assay: TPH1 enzyme activity assay (HPLC, 5-OH-Trp); assay type: biochemical; conditions: best-fit IC50 (± SE), nonlinear regression; N.A. = no activity
T2 construct: doubly truncated human TPH1 (ΔNH102-ΔCOOH402); made in house; host or cells: E. coli BL21(DE3)
T2 sequence (P17752 102-402, stated change not applied): as the sequence (P17752 102-402) above

human TPH2 = molecular target: T3, human TPH2 (Homo sapiens, UniProt Q8IWU9); assay: TPH2 enzyme activity assay (HPLC); assay type: biochemical; conditions: best-fit IC50 (± SE), nonlinear regression; N.A. = no activity
T3 construct: Full-length human TH isoform 1 (TH1), human PAH, human TPH2, and doubly truncated human TPH1; MBP (cleaved yes); made in house; host or cells: E. coli BL21(DE3)
T3 sequence (Q8IWU9 1-490): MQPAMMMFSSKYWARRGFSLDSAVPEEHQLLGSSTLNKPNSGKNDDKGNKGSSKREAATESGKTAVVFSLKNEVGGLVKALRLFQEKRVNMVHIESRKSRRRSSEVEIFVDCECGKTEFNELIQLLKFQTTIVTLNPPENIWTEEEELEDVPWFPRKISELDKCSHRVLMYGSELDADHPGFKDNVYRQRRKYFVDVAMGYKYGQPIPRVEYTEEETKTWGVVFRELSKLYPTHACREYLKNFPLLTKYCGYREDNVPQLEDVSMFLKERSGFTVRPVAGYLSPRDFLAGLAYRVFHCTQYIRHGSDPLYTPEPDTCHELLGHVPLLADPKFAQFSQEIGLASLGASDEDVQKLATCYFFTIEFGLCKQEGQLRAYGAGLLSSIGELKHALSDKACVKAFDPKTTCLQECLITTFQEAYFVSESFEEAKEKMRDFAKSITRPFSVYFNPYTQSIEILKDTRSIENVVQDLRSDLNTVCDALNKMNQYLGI

human PAH = molecular target: T4, human PAH (Homo sapiens, UniProt P00439); assay: PAH enzyme activity assay (HPLC, L-Tyr); assay type: biochemical
T4 construct: Full-length human TH isoform 1 (TH1), human PAH, human TPH2, and doubly truncated human TPH1; made in house; host or cells: E. coli TB1
T4 sequence (P00439 1-452): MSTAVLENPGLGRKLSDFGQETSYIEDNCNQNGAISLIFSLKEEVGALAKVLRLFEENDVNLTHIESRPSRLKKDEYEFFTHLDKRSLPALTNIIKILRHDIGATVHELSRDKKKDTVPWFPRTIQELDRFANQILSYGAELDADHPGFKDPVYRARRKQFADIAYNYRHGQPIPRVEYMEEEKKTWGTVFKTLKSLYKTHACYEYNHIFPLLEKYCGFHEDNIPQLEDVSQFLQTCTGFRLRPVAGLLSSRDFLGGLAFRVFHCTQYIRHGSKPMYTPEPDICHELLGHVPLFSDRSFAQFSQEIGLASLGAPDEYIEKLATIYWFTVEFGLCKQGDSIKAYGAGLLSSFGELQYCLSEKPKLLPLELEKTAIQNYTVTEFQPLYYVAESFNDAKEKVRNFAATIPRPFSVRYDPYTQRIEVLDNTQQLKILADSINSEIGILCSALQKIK

human TH isoform 1 (TH1) = molecular target: T5, human TH isoform 1 (TH1) (Homo sapiens, UniProt P07101); assay: TH enzyme activity assay (HPLC, L-DOPA); assay type: biochemical; conditions: best-fit IC50 (± SE), nonlinear regression; N.A. = no activity
T5 construct: Full-length human TH isoform 1 (TH1); His6-ZZ fusion partner (one of the two preparations only) (cleaved yes); made in house; host or cells: E. coli BL21(DE3) pLysS (pET3a) or BL21 CodonPlus (pET-ZZ-1a)
T5 sequence (P07101 1-497 isoform P07101-3): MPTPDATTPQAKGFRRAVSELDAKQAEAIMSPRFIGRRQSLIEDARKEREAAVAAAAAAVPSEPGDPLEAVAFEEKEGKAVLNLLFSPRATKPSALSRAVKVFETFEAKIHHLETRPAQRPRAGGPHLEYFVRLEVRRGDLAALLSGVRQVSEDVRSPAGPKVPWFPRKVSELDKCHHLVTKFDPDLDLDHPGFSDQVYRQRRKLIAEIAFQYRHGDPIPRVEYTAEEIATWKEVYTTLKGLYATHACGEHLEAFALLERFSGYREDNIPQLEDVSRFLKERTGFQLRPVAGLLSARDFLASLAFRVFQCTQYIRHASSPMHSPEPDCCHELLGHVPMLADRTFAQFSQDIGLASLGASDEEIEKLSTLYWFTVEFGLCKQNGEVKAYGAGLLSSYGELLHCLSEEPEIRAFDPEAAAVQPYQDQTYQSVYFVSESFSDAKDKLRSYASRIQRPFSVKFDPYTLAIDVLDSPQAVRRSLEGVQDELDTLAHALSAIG
Protocol: (§1) The activity of purified PAH, TH, TPH1, and TPH2 was measured using high-performance liquid chromatography (HPLC) as previously described.[50],[56],[57]
TH activities were performed in a standard reaction mixture containing 40 mM Hepes (pH 7.0), 0.1 mg/mL catalase, 10 μM ferrous ammonium sulfate, and 50 μM L-Tyr. Compounds were incubated with TH (0.01 mg/mL) in the reaction mixture for 10 min on ice. The enzymatic reaction was initiated by adding 200 μM BH4 and 2 mM DTT (final concentrations) and stopped by precipitation with 2% (v/v) acetic acid in ethanol after 5 min at 37 °C. The product, L-DOPA, was quantified by HPLC utilizing a fluorescence monitor set at 281 and 314 nm for excitation and emission, respectively.
GraphPad Prism (version 10; La Jolla, CA) was used for analyzing the enzyme inhibition data.

endogenous PAH = molecular target: T6, endogenous PAH (Homo sapiens, UniProt P00439); assay: Cellular thermal shift assay (CETSA) in HepG2 cells; assay type: cell-based; conditions: 50 μM compound, 1 h, vs DMSO
T6 construct: increased melting temperatures (ΔTm) of endogenous PAH; endogenous in cells; host or cells: HepG2
T6 sequence (P00439 1-452): T4 sequence (P00439 1-452)
Protocol: Then, cells were washed, harvested using trypsin, and pelleted by centrifugation. The pellet was washed twice with PBS supplemented with complete EDTA-free protease inhibitor cocktail (Roche) and divided into 14 aliquots of 35 μL containing 800,000 cells. Cells were then frozen in liquid nitrogen and thawed at 25 °C three times, and each aliquot was heated to a defined temperature by applying a gradient between 39 °C and 69 °C in a thermocycler (peQSTAR, PeQlab; 16-well gradient, 54 °C ± 15 °C). After 3 min incubation, aliquots were snap frozen in liquid nitrogen and thawed at 25 °C. Cell lysates were centrifuged at 20,000 g (4 °C) for 20 min. Supernatants were mixed with 5x loading buffer, heated to 70 °C for 5 min and analyzed by Western blotting. Chemoluminescence signals were recorded with a FusionSL, Vilber Lourmat (peQlab) and quantified using FusionCapt Advance FX7 16.01c software. Calculation of ΔTm was conducted using the Boltzmann sigmoidal model in GraphPad prism 7.01.
Cell lysates used for Western blot analysis were prepared as described in the Methods section (Cellular Thermal Shift Assay). […] Chemoluminescence signals were recorded with an FusionSL, Vilber Lourmat (peQlab) and quantified using FusionCapt Advance FX7 16.01c software.

HDAC 1 = conditions: human recombinant HDAC, cited from earlier work
HDAC 8 = conditions: human recombinant HDAC, cited from earlier work
HDAC 6 = conditions: human recombinant HDAC; ref 6 (10.1002/cmdc.201800238); cited from earlier work
[2] = system: AAAHs (PAH, TH, TPH1, TPH2); assay: Enzyme activity assays, statement over all four AAAHs; assay type: biochemical, human
Protocol: as §1
TPH1 enzymatic activity assays were performed with the selected hits from the DSF screening in the presence and absence of 50 μM of each compound. The final concentration of DMSO was 0.5% (v/v), and control experiments used 0.5% DMSO in the absence of ligand. Assays were performed in a standard reaction mixture containing 40 mM Hepes pH 7.0, 200 mM NaCl, 0.1 mg/mL catalase, 0.5 mg/mL BSA, 10 μM ferrous ammonium sulfate, and 30 μM L-tryptophan (L-Trp). Compounds were incubated with TPH1 (0.02 mg/mL) in the reaction mixture for 10 min on ice. The enzymatic reaction was initiated by adding 200 μM BH4 and 2 mM DTT (final concentrations) and stopped by precipitation with 2% (v/v) acetic acid in ethanol after 3 min at 37 °C. The product, 5-hydroxy-tryptophan (5-OH-Trp), was quantified by HPLC utilizing a fluorescence monitor set at 302 and 350 nm for excitation and emission, respectively. […]. […]
PAH activities were performed in a standard reaction mixture containing 100 mM Hepes (pH 7.0), 0.04 mg/mL catalase, 0.05% BSA, 10 μM ferrous ammonium sulfate, and 1 mM phenylalanine (Phe). […] The product, L-Tyrosine (L-Tyr), was quantified by HPLC utilizing a fluorescence monitor set at 274 and 304 nm for excitation and emission, respectively. […]

dopamine transporter = system: dopamine transporter; design: method as in PMID 21785940; conditions: neuroblastoma cells; cited from earlier work
serotonin transporter = system: serotonin transporter; design: method as in PMID 21785940; conditions: neuroblastoma cells; cited from earlier work

ΔTm (°C) ± SD (°C), primary screen (TPH1; vs averaged Tm of 0.5% DMSO controls): -3.4 ± 0.1 °C
IC50 [1]: 49.6 µM
IC50 (human TPH2): 195 µM
IC50 (human PAH; best-fit IC50 (± SE), nonlinear regression, N.A. = no activity, read-out: IC50 (μM) PAH): 1.55 µM and 1.6 µM
selectivity toward PAH in comparison to TPH1 (human PAH; from IC50 values of Table 2): 30 fold
selectivity toward PAH in comparison to TPH2 (human PAH; from IC50 values of Table 2): 125 fold
IC50 (μM) TH (human TH isoform 1 (TH1)): no inhibition
ΔTm of endogenous PAH (CETSA) (endogenous PAH): 4.8 °C
SMILES: O=C(/C=C/c1ccccc1Oc1ccc(Cl)cc1)NO [TB57, (2E)-3-[2-(4-Chlorophenoxy)phenyl]-N-hydroxy-2-propenamide]
IC50 (HDAC 1; ref 6 (10.1002/cmdc.201800238)): 13.4 ± 2.4 µM
IC50 (HDAC 8; ref 6 (10.1002/cmdc.201800238)): 0.15 ± 0.03 µM
IC50 (HDAC 6): 11.4 ± 2.5 µM

SMILES: Nc1ccccc1NC(=O)c1ccc(CNc2nccc(-c3cccnc3)n2)cc1 [mocetinostat, reference compound]
Tm (°C) ± SD (°C), primary screen (TPH1; 0.075 mg/mL TPH1, 0.5% DMSO, three independent measurements (a: duplicates)): 54.5 ± 0.2 °C
ΔTm at 50 µM (TPH1; vs averaged Tm of 0.5% DMSO controls, read-out: ΔTm (°C) ± SD (°C), primary screen): -0.8 °C
inhibitory activity against all the AAAHs [2]: completely inactive
IC50 (HDAC 1; ref 2 (PMID: 23829483)): 0.098 ± 0.055 µM
IC50 (HDAC 8; ref 2 (PMID: 23829483)): 35 ± 4.4 µM

SMILES: CC(/C=C/C(=O)NO)=C\[C@@H](C)C(=O)c1ccc(N(C)C)cc1 [trichostatin A]
increase of dopamine transporter expression (dopamine transporter): 45 fold
increase of serotonin transporter expression (serotonin transporter): 15 fold

From publication PMC11587510, “Aromatic Amino Acid Hydroxylases as Off-Targets of Histone Deacetylase Inhibitors” (ACS Chemical Neuroscience, 2024)
